Test [1] has as its system hepatoma cell line HCCLM3. Format: cell-based. The conditions noted are these: 72 h. On the procedure:
(§1) The hepatoma cell line BEL7404 (purchased from The Chinese Academy of Sciences cell bank) was a cell line with high expression of YAP protein; HCCLM3 (purchased from The Chinese Academy of Sciences cell bank) was a cell line with low expression of YAP protein. The hepatoma cell lines (BEL7404 or HCCLM3) were inoculated into a 96-well plate at the concentration of 2000 cells/well, and incubated overnight in RPMI1640 containing 1% bovine serum at 37° C. The hepatoma cell lines were treated with polypeptides having different concentrations at 37° C. for 72 h.
(§2) Moreover, IC50 values of the cells in 1.1 were determined using CCK-8 kit.
(§3) The polypeptide represented by SEQ ID NO.:1 was further modified. The IC50 values of the polypeptides at a concentration of 1% in cell cultivating for 72 h were measured.

The subject of test [2] is hepatoma cell line BEL7404. Format: cell-based. The conditions noted are these: for IC50: 72 h; for YAP inhibitory activity: summary of Table 8 in words. On the procedure: as §1, §2, §3

For the molecule `CSCC[C@H](NC(=O)[C@H](CCCNC(=N)N)NC(=O)[C@@H](N)CCCNC(=N)N)C(=O)N[C@@H](CCCCN)C(=O)N[C@@H](Cc1c[nH]c2ccccc12)C(=O)N[C@@H](CCCCN)C(=O)N[C@@H](CCCCN)C(=O)N1CCC[C@H]1C(=O)N[C@@H](CCC(N)=O)C(=O)NCC(=O)N[C@@H](CCC(N)=O)C(=O)NCC(=O)N1CCC[C@H]1C(=O)N1CCC[C@H]1C(=O)N[C@@H](CO)C(=O)NCC(=O)N1CCC[C@H]1C(=O)NCC(=O)N[C@@H](CCC(N)=O)C(=O)N1CCC[C@H]1C(=O)N[C@@H](C)C(=O)N1CCC[C@H]1C(=O)N[C@@H](C)C(=O)O` [SEQ ID NO.: 16], the IC50 in test [1] is greater than 1000 µM; in test [2], 242 ± 27.2 µM.
With `CC[C@H](C)[C@H](NC(=O)[C@H](CCCCN)NC(=O)[C@H](CCCCN)NC(=O)[C@H](Cc1c[nH]c2ccccc12)NC(=O)[C@H](CCCCN)NC(=O)[C@H](CCSC)NC(=O)[C@H](CCCNC(=N)N)NC(=O)[C@@H](N)CCCNC(=N)N)C(=O)N[C@H](C(=O)N[C@@H](Cc1c[nH]cn1)C(=O)N[C@H](C(=O)N[C@@H](CCCNC(=N)N)C(=O)NCC(=O)N[C@@H](CC(=O)O)C(=O)N[C@@H](CO)C(=O)N[C@@H](CCC(=O)O)C(=O)N[C@H](C(=O)N[C@@H](CC(=O)O)C(=O)N[C@@H](CC(C)C)C(=O)N[C@@H](CCC(=O)O)C(=O)N[C@@H](C)C(=O)N[C@@H](CC(C)C)C(=O)N[C@@H](Cc1ccccc1)C(=O)O)[C@@H](C)O)C(C)C)C(C)C` [SEQ ID NO.: 17], the figures for the IC50 in test [1] and in test [2] were greater than 1000 µM and 211 ± 44.2 µM, respectively.
For `CSCC[C@H](NC(=O)[C@H](CCCNC(=N)N)NC(=O)[C@@H](N)CCCNC(=N)N)C(=O)N[C@@H](CCCCN)C(=O)N[C@@H](Cc1c[nH]c2ccccc12)C(=O)N[C@@H](CCCCN)C(=O)N[C@@H](CCCCN)C(=O)N[C@H](C(=O)N[C@@H](C)C(=O)NCC(=O)N[C@@H](C)C(=O)N[C@@H](CC(C)C)C(=O)N[C@H](C(=O)N1CCC[C@H]1C(=O)N[C@@H](CCC(N)=O)C(=O)N[C@@H](Cc1c[nH]cn1)C(=O)N[C@H](C(=O)N[C@@H](CCCNC(=N)N)C(=O)N[C@@H](C)C(=O)N[C@@H](Cc1c[nH]cn1)C(=O)N[C@@H](CO)C(=O)N[C@@H](CO)C(=O)N1CCC[C@H]1C(=O)O)C(C)C)[C@@H](C)O)[C@@H](C)O` [SEQ ID NO.: 18], the results for the half-maximal inhibitory concentration (IC50) in test [1] and in test [2] were greater than 1000 µM and 816 ± 14.4 µM, respectively.
Consider `CSCC[C@H](NC(=O)[C@H](CCCNC(=N)N)NC(=O)[C@@H](N)CCCNC(=N)N)C(=O)N[C@@H](CCCCN)C(=O)N[C@@H](Cc1c[nH]c2ccccc12)C(=O)N[C@@H](CCCCN)C(=O)N[C@@H](CCCCN)C(=O)N1CCC[C@H]1C(=O)N[C@H](C(=O)NCC(=O)N[C@H](C(=O)N[C@H](C(=O)N[C@@H](CO)C(=O)NCC(=O)N1CCC[C@H]1C(=O)N[C@@H](C)C(=O)N[C@@H](C)C(=O)N[C@H](C(=O)N1CCC[C@H]1C(=O)N[C@H](C(=O)N[C@@H](C)C(=O)N[C@@H](CCC(N)=O)C(=O)N[C@@H](Cc1c[nH]cn1)C(=O)O)[C@@H](C)O)[C@@H](C)O)C(C)C)C(C)C)[C@@H](C)O` [SEQ ID NO.: 19], for which the concentration for half-maximal inhibition (IC50) in test [1] is greater than 1000 µM; in test [2], 763 ± 31.5 µM.
For “VP(3-Cl)F-Hcy-LKK-Nle-PASFCKPP RRMKWKK [SEQ ID NO.: 23]”, in test [2], the YAP inhibitory activity result is “best inhibitory activity”.
In the case of “VP(3-Cl)F-Hcy-LRK-Nle-PASFCKPP RRMKWKK [SEQ ID NO.: 21]”, the YAP inhibitory activity result in test [2] is “best inhibitory activity”.
On the same count and under the same terms, with “VP(3-Cl)F-LKK-Hcy-Nle-PASFKPPC RRMKWKK [SEQ ID NO.: 33]” the entry was “best inhibitory activity”; with “VP-Hcy-(3-Cl)F-LKK-Nle-PASCFKPP RRMKWKK [SEQ ID NO.: 31]”, “best inhibitory activity”.

As a reminder, the IC50 is the concentration that gives 50% inhibition. Low readings indicate greater potency in that assay, high ones weaker potency in that assay.

Values taken from US10526385B2, “YAP protein inhibiting polypeptide and application thereof” (BAO KANG BIOMEDICAL HEALTHCARE INC, priority 2013, dated 2020).
